Laboratory results from patent US20080194585A1, “Fungicidal Pyrazine Derivatives” (priority 2005, published 2008).
Marks after values point to notes of the source that are not given here.

How the values were obtained:
Details in all cases: 100 = 100% disease control, 0 = no control
Plasmopara viticola = experiment: Test D: grape downy mildew, spray after inoculation of grape seedlings; type: in vivo
Excerpt: Upon removal, disease ratings were made. […] A dash (-) indicates no test results.

Phytophthora infestans = experiment: whole plant or invertebrate; type: in vivo
Septoria tritici = experiment: Test J: wheat leaf blotch, preventive spray on wheat seedlings; type: in vivo
Excerpt: A dash (-) indicates no test results.

fusarium graminearium = experiment: Test I: wheat head scab, preventive spray on wheat seedlings
Method: (the causal agent of wheat head scab) and incubated in a saturated atmosphere at 20° C. for 72 h, and then moved to a growth chamber at 22° C. for 5 days, after which disease ratings were made.

[1] = tested on: Puccinia recondita f. sp. tritici; experiment: Test K: wheat leaf rust, preventive spray on wheat seedlings
Botrytis cinerea = experiment: Test E: tomato botrytis, preventive spray on tomato seedlings
Septoria nodorum = experiment: Test H: wheat glum blotch, preventive spray on wheat seedlings
Method: (the causal agent of wheat glum blotch) and incubated in a saturated atmosphere at 20° C. for 48 h, and then moved to a growth chamber at 22° C. for 5 days, after which disease ratings were made.

[2] = tested on: Erysiphe graminis f. sp. tritici; experiment: Test L: wheat powdery mildew, preventive spray on wheat seedlings
Pythium aphanidermatum = experiment: Test A: bluegrass pythium blight, preventive spray on bluegrass seedlings
Rhizoctonia oryzae = experiment: Test G: turf brown patch, preventive spray on creeping bent grass seedlings
Method: (the causal agent of turf brown patch) and incubated in a saturated atmosphere at 27° C. for 24 h, and then moved to a growth chamber at 27° C. for 5 days, after which disease ratings were made.

[3] = tested on: Colletotrichum orbiculare; experiment: Test B: cucumber Colletotrichum anthracnose, preventive spray on cucumber seedlings

| SMILES | Test D disease control rating (Plasmopara viticola; 40 ppm (marked *)) | Test F disease control rating (Phytophthora infestans; 40 ppm (marked *)) | Test J disease control rating (Septoria tritici; 40 ppm (marked *)) | Test I disease control rating (fusarium graminearium; 40 ppm (marked *)) | Test K disease control rating ([1]; 40 ppm (marked *)) | Test E disease control rating (Botrytis cinerea; 40 ppm (marked *)) | Test H disease control rating (Septoria nodorum; 40 ppm (marked *)) | Test L disease control rating ([2]; 40 ppm (marked *)) | Test A disease control rating (Pythium aphanidermatum; 40 ppm (marked *)) | Test D disease control rating (Plasmopara viticola; 200 ppm) [%] | Test F disease control rating (Phytophthora infestans; 200 ppm) [%] | Test J disease control rating (Septoria tritici; 200 ppm) [%] | Test I disease control rating (fusarium graminearium; 200 ppm) [%] | Test K disease control rating ([1]; 200 ppm) [%] | Test E disease control rating (Botrytis cinerea; 200 ppm) [%] | Test H disease control rating (Septoria nodorum; 200 ppm) [%] | Test L disease control rating ([2]; 200 ppm) [%] | Test A disease control rating (Pythium aphanidermatum; 200 ppm) [%] | Test G disease control rating (Rhizoctonia oryzae; 200 ppm) [%] | Test B disease control rating ([3]; 200 ppm) [%] | other results |
| --- | --- | --- | --- | --- | --- | --- | --- | --- | --- | --- | --- | --- | --- | --- | --- | --- | --- | --- | --- | --- | --- |
| CCCCn1c(-c2ccc(F)cc2Cl)c(Br)nc(N2CCC=N2)c1=O [compound 286] | 0* % | 41* % | 37* % | 0* % | 0* % | 97* % | 0* % | 0* % | 0* % | – | – | – | – | – | – | – | – | – | – | – | Test G disease control rating (Rhizoctonia oryzae; 40 ppm (marked *)): 0* %; Test B disease control rating ([3]; 40 ppm (marked *)): 0* % |
| O=c1c(-n2cccn2)nc(Cl)c(-c2c(F)cc(F)cc2F)n1-c1ccccc1 [compound 287] | 47* % | 46* % | 100* % | 97* % | 99* % | 100* % | 99* % | 99* % | 56* % | – | – | – | – | – | – | – | – | – | – | – | Test G disease control rating (Rhizoctonia oryzae; 40 ppm (marked *)): 93* %; Test B disease control rating ([3]; 40 ppm (marked *)): 99* % |
| CCC(C)Cn1c(-c2c(F)cccc2F)c(Cl)nc(C(=O)NC)c1=O (stereo not drawn) [compound 297] | – | – | – | – | – | – | – | – | – | 88 | 92 | 99 | 75 | 98 | 99 | 100 | 97 | 0 | 78 | 73 | – |
| CCCNC(=O)c1nc(Cl)c(-c2c(F)cccc2F)n(CC(C)CC)c1=O (stereo not drawn) [compound 299] | – | – | – | – | – | – | – | – | – | 40 | 90 | 100 | 100 | 100 | 99 | 99 | 95 | 69 | 31 | 40 | – |
| CC(C)c1c(Cl)nc(-n2cccn2)c(=O)n1Cc1ccccc1 [compound 304] | – | – | – | – | – | – | – | – | – | 0 | 49 | 100 | 0 | 100 | 99 | 0 | 46 | 0 | 31 | 0 | – |
| Cc1ccn(-c2nc(Cl)c(C(C)C)n(Cc3ccccc3)c2=O)n1 [compound 305] | – | – | – | – | – | – | – | – | – | 0 | 50 | 93 | 0 | 97 | 99 | 0 | 52 | 0 | 16 | 0 | – |
| CC(C)c1c(Cl)nc(-n2cccn2)c(=O)n1-c1ccccc1 [compound 306] | – | – | – | – | – | – | – | – | – | 0 | 30 | 44 | 0 | 51 | 0 | 0 | 0 | 0 | 0 | 0 | – |
| Cc1ccn(-c2nc(Cl)c(C(C)C)n(-c3ccccc3)c2=O)n1 [compound 307] | – | – | – | – | – | – | – | – | – | 0 | 84 | 20 | 49 | 51 | 88 | 0 | 0 | 0 | 0 | 0 | – |
| COC(=O)Cn1c(-c2c(F)cccc2F)c(Cl)nc(-n2ccc(C)n2)c1=O [compound 308] | 0* % | 0* % | 29* % | 0* % | 9* % | 0* % | 0* % | 0* % | 0* % | – | – | – | – | – | – | – | – | – | – | – | Test G disease control rating (Rhizoctonia oryzae; 40 ppm (marked *)): 0* %; Test B disease control rating ([3]; 40 ppm (marked *)): 0* % |
| CSCC(C)n1c(-c2c(F)cccc2F)c(Cl)nc(-n2ccc(C)n2)c1=O (stereo not drawn) [compound 309] | 0* % | 0* % | 5* % | 0* % | 0* % | 99* % | 0* % | 0* % | 0* % | – | – | – | – | – | – | – | – | – | – | – | Test G disease control rating (Rhizoctonia oryzae; 40 ppm (marked *)): 0* %; Test B disease control rating ([3]; 40 ppm (marked *)): 0* % |
| COCCn1c(-c2c(F)cccc2F)c(Cl)nc(-n2ccc(C)n2)c1=O [compound 310] | 0* % | 0* % | 42* % | 0* % | 74* % | 0* % | 64* % | 0* % | 0* % | – | – | – | – | – | – | – | – | – | – | – | Test G disease control rating (Rhizoctonia oryzae; 40 ppm (marked *)): 0* %; Test B disease control rating ([3]; 40 ppm (marked *)): 0* % |
| CSCCn1c(-c2c(F)cccc2F)c(Cl)nc(-n2ccc(C)n2)c1=O [compound 311] | 0* % | 0* % | 74* % | 0* % | 74* % | 94* % | 0* % | 0* % | 0* % | – | – | – | – | – | – | – | – | – | – | – | Test G disease control rating (Rhizoctonia oryzae; 40 ppm (marked *)): 0* %; Test B disease control rating ([3]; 40 ppm (marked *)): 0* % |
| COCC(C)n1c(-c2c(F)cccc2F)c(Cl)nc(-n2cccc2C#N)c1=O (stereo not drawn) [compound 312] | – | – | – | – | – | – | – | – | – | 40 | 9 | 13 | 0 | 0 | 0 | 0 | 0 | 0 | 0 | 0 | – |
| CC(C)Cn1c(-c2c(F)cccc2F)c(Cl)nc(N2CCCC2)c1=O [compound 314] | – | – | – | – | – | – | – | – | – | 0 | 0 | 0 | 18 | 0 | 0 | 0 | 0 | 88 | 0 | 0 | – |
| CC(C)Cn1c(C2CC2)c(Cl)nc(-n2cccn2)c1=O [compound 315] | – | – | – | – | – | – | – | – | – | 0 | 0 | 7 | 0 | 0 | 0 | 0 | 0 | 69 | 0 | 0 | – |
| CCc1c(Cl)nc(-n2cccn2)c(=O)n1CC(C)C [compound 316] | – | – | – | – | – | – | – | – | – | 0 | 0 | 0 | 0 | 0 | 0 | 0 | 0 | 54 | 0 | 0 | – |
| CCCCCc1c(Cl)nc(-n2cccn2)c(=O)n1CC(C)C [compound 317] | – | – | – | – | – | – | – | – | – | 0 | 0 | 28 | 0 | 41 | 0 | 0 | 0 | 0 | 0 | 0 | – |
| CC(C)Cn1c(-c2c(Cl)cc(Cl)cc2Cl)c(Cl)nc(-n2cccn2)c1=O [compound 318] | 0* % | 0* % | 100* % | 0* % | 97* % | 99* % | 97* % | 67* % | 0* % | – | – | – | – | – | – | – | – | – | – | – | Test G disease control rating (Rhizoctonia oryzae; 40 ppm (marked *)): 78* %; Test B disease control rating ([3]; 40 ppm (marked *)): 82* % |
